From PMC4503722, “Novel Phenotypic Outcomes Identified for a Public Collection of Approved Drugs from a Publicly Accessible Panel of Assays” (PLoS ONE, 2015)

What was measured:
[1] = system: endothelial tube formation in co-cultures of ECFCs and ADSCs treated with VEGF; test: cells; assay type: cell-based, human
HeLa cells = test: cells; assay type: cell-based; details: for Hela CellCycMod PI 2N IC50/EC50: assay number 14; for Hela CellCycMod PI S Phase IC50/EC50: assay number 15; for Hela CellCycMod PI 4N IC50/EC50: assay number 16; for Hela CellCycMod PI MI IC50/EC50: assay number 17; for Hela CellCycMod PI Cell Number IC50/EC50: assay number 18
[2] = system: ECFC/ADSC co-culture cell nuclei number
DLD-1 = test: cells; assay type: cell-based; details: assay number 23; for IC50: read-out: Basal_Viability ATP DLD-1 summarized IC50
HCT116 = test: cells; assay type: cell-based; details: assay number 25, basal
[3] = system: HCT116 cells treated with a GSK3β inhibitor; test: cells; assay type: cell-based; details: assay number 26, GSK3b inhibitor pretreated
Colo320 = test: cells; assay type: cell-based; details: assay number 27; for IC50: read-out: Basal_Viability ATP Colo 320 summarized IC50
RKO = test: cells; assay type: cell-based; details: assay number 29; for IC50: read-out: Basal_Viability ATP RKO summarized IC50
SNU-C1 = test: cells; assay type: cell-based; details: assay number 30
SW480 = test: cells; assay type: cell-based; details: assay number 24, basal; for IC50: read-out: Basal_Viability ATP SW480 summarized IC50
HT-29 = test: cells; assay type: cell-based; details: assay number 28; basal; read-out: Basal_Viability ATP HT-29 summarized IC50

## O=C(O)CCCc1ccc(N(CCCl)CCCl)cc1 [NCGC00015199-20]
[1]
  IC50/EC50, VEGF_ADSC\ECFC Angio CD31 TubeArea (assay number 2): 1.2446 µM
HeLa cells; 2N
  IC50/EC50, Hela CellCycMod PI 2N (assay number 14): > 10 µM
HeLa cells; 4N
  IC50/EC50, Hela CellCycMod PI 4N (assay number 16): > 10 µM
HeLa cells; Cell Number
  IC50/EC50, Hela CellCycMod PI Cell Number (assay number 18): > 10 µM
HeLa cells; MI
  IC50/EC50, Hela CellCycMod PI MI (assay number 17): > 10 µM
HeLa cells; S Phase
  IC50/EC50, Hela CellCycMod PI S Phase (assay number 15): 2.1921 µM
[2]
  IC50/EC50, VEGF_ADSC\ECFC Angio Hoechst NucArea (assay number 3): > 10 µM

## C1CN(P2(N3CC3)=NP(N3CC3)(N3CC3)=NP(N3CC3)(N3CC3)=N2)CCO1 (centres unmarked) [NCGC00160420-02]
[1]
  VEGF_ADSC\ECFC Angio CD31 TubeArea IC50/EC50: 3.6152 µM
HeLa cells; 2N
  Hela CellCycMod PI 2N IC50/EC50: > 10 µM
HeLa cells
  Hela CellCycMod PI S Phase IC50/EC50: > 10 µM
  Hela CellCycMod PI Cell Number IC50/EC50: > 10 µM
HeLa cells; 4N
  Hela CellCycMod PI 4N IC50/EC50: > 10 µM
HeLa cells; MI
  Hela CellCycMod PI MI IC50/EC50: > 10 µM
[2]
  VEGF_ADSC\ECFC Angio Hoechst NucArea IC50/EC50: > 10 µM

## C[C@@H]1C[C@H]2[C@@H]3CCC4=CC(=O)C=C[C@]4(C)[C@@]3(Cl)[C@@H](O)C[C@]2(C)[C@@]1(OC(=O)c1ccco1)C(=O)CCl [NCGC00179578-03]
[1]
  VEGF_ADSC\ECFC Angio CD31 TubeArea IC50/EC50: 4.9886 µM
HeLa cells; 2N
  Hela CellCycMod PI 2N IC50/EC50: > 10 µM
HeLa cells
  Hela CellCycMod PI S Phase IC50/EC50: > 10 µM
HeLa cells; 4N
  Hela CellCycMod PI 4N IC50/EC50: > 10 µM
HeLa cells; MI
  Hela CellCycMod PI MI IC50/EC50: > 10 µM
[2]
  VEGF_ADSC\ECFC Angio Hoechst NucArea IC50/EC50: > 10 µM

## O=C(OCc1ccccc1)c1cccnc1 [NCGC00166105-04]
[1]
  VEGF_ADSC\ECFC Angio CD31 TubeArea IC50/EC50: > 10 µM
DLD-1; concentration response
  Basal_Viability ATP DLD-1 IC50/EC50: > 20 µM
HCT116; concentration response
  Basal_Viability ATP HCT116 IC50/EC50: > 20 µM
[3]; concentration response
  GSK3b inh pretreated_Viability ATP HCT116 IC50/EC50: > 20 µM
Colo320; concentration response
  Basal_Viability ATP Colo 320 IC50/EC50: > 20 µM
RKO; concentration response
  Basal_Viability ATP RKO IC50/EC50: > 20 µM
SNU-C1; concentration response
  Basal_Viability ATP SNU-C1 IC50/EC50: > 20 µM
[2]
  VEGF_ADSC\ECFC Angio Hoechst NucArea IC50/EC50: > 10 µM

## CCCCCCCCCCCCCCCCNc1ccc(C(=O)O)cc1 [NCGC00261985-01]
[1]
  VEGF_ADSC\ECFC Angio CD31 TubeArea IC50/EC50: 0.3673 µM
HeLa cells; 2N
  Hela CellCycMod PI 2N IC50/EC50: > 10 µM
HeLa cells; 4N
  Hela CellCycMod PI 4N IC50/EC50: > 10 µM
HeLa cells; MI
  Hela CellCycMod PI MI IC50/EC50: > 10 µM
HeLa cells
  Hela CellCycMod PI Cell Number IC50/EC50: > 10 µM
[2]
  VEGF_ADSC\ECFC Angio Hoechst NucArea IC50/EC50: > 10 µM

## CC(=O)Nc1ccn(C2COC(COC(=O)c3ccccc3)O2)c(=O)n1 (centres unmarked) [NCGC00183850-01]
[1]
  VEGF_ADSC\ECFC Angio CD31 TubeArea IC50/EC50: 2.3271 µM
HeLa cells; 2N
  Hela CellCycMod PI 2N IC50/EC50: > 10 µM
HeLa cells
  Hela CellCycMod PI S Phase IC50/EC50: 0.312 µM
  Hela CellCycMod PI Cell Number IC50/EC50: 0.2813 µM
HeLa cells; 4N
  Hela CellCycMod PI 4N IC50/EC50: > 10 µM
HeLa cells; MI
  Hela CellCycMod PI MI IC50/EC50: > 10 µM
[2]
  VEGF_ADSC\ECFC Angio Hoechst NucArea IC50/EC50: > 10 µM

## C[S+](CC[C@H](N)C(=O)O)C[C@H]1O[C@@H](n2cnc3c(N)ncnc32)[C@H](O)[C@@H]1O (some centres unmarked) [NCGC00167546-03]
[1]
  VEGF_ADSC\ECFC Angio CD31 TubeArea IC50/EC50: > 10 µM
DLD-1; basal
  Basal_Viability ATP DLD-1 IC50/EC50: > 20 µM
SW480
  Basal_Viability ATP SW480 IC50/EC50: > 20 µM
HCT116
  Basal_Viability ATP HCT116 IC50/EC50: > 20 µM
[3]
  GSK3b inh pretreated_Viability ATP HCT116 IC50/EC50: > 20 µM
Colo320; basal
  Basal_Viability ATP Colo 320 IC50/EC50: > 20 µM
RKO; basal
  Basal_Viability ATP RKO IC50/EC50: > 20 µM
SNU-C1; basal
  Basal_Viability ATP SNU-C1 IC50/EC50: > 20 µM
[2]
  VEGF_ADSC\ECFC Angio Hoechst NucArea IC50/EC50: > 10 µM

## COc1ccc2cc3[n+](cc2c1OC)CCc1cc2c(cc1-3)OCO2 [NCGC00016526-07]
[1]
  VEGF_ADSC\ECFC Angio CD31 TubeArea IC50/EC50: 2.6815 µM
HeLa cells; 2N
  Hela CellCycMod PI 2N IC50/EC50: > 10 µM
HeLa cells; 4N
  Hela CellCycMod PI 4N IC50/EC50: > 10 µM
HeLa cells; MI
  Hela CellCycMod PI MI IC50/EC50: > 10 µM
HeLa cells
  Hela CellCycMod PI Cell Number IC50/EC50: > 10 µM
[2]
  VEGF_ADSC\ECFC Angio Hoechst NucArea IC50/EC50: > 10 µM

## Nc1nc(=O)n([C@@H]2O[C@H](CO)[C@@H](O)[C@@H]2F)cc1I [NCGC00262963-01]
[1]
  VEGF_ADSC\ECFC Angio CD31 TubeArea IC50/EC50: 3.4717 µM
HeLa cells; 2N
  Hela CellCycMod PI 2N IC50/EC50: > 10 µM
HeLa cells
  Hela CellCycMod PI S Phase IC50/EC50: > 10 µM
  Hela CellCycMod PI Cell Number IC50/EC50: 8.504 µM
HeLa cells; 4N
  Hela CellCycMod PI 4N IC50/EC50: > 10 µM
HeLa cells; MI
  Hela CellCycMod PI MI IC50/EC50: > 10 µM
[2]
  VEGF_ADSC\ECFC Angio Hoechst NucArea IC50/EC50: > 10 µM

## COc1ccc(C(=O)c2ccccc2O)c(O)c1 [NCGC00016393-07]
DLD-1; basal
  IC50: > 20 µM
SW480
  IC50: > 20 µM
HCT116; read-out: Basal_Viability ATP HCT116 summarized IC50
  IC50: > 20 µM
Colo320; basal
  IC50: > 20 µM
HT-29
  IC50: > 20 µM
RKO; basal
  IC50: > 20 µM

## CCOP(=S)(OCC)SCSc1ccc(Cl)cc1 [NCGC00166170-02]
[1]; read-out: VEGF_ADSC\ECFC Angio CD31 TubeArea summarized IC50
  IC50: > 10 µM
DLD-1; basal
  IC50: > 20 µM
SW480
  IC50: > 20 µM
[3]; read-out: GSK3b inh pretreated_Viability ATP HCT116 summarized IC50
  IC50: > 20 µM
Colo320; basal
  IC50: > 20 µM
RKO; basal
  IC50: > 20 µM
SNU-C1; basal, read-out: Basal_Viability ATP SNU-C1 summarized IC50
  IC50: > 20 µM
[2]; read-out: VEGF_ADSC\ECFC Angio Hoechst NucArea summarized IC50
  IC50: > 10 µM
